# Reference: the supplement of paper PMC11208160
# Test: recombinant barcode read abundance after kanamycin selection (control-corrected) (log10(CPM+1)); higher = more efficient recombination; sequences stand for … in AGTGCAGAGAAAATCGGCCAGTTTTCTCTGCCTGCAGTCCGCATGCCGT…AGATTTATGCAGCGGACTGCCTTTCTCCCAAAGTGATAAACCGGACAGTATCATGGACCGGTTTTCCCGGTAATCCGTATTTGCAAGGTTGGTTTCACT; site = the 11-nt target
# Method in brief: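 Recombination efficiency in this pooled E. coli screen uses counts per million of barcodes at recombinant junctions, averaged and corrected against the control. The reported form is log10(CPM+1). Two replicates were plated on chloramphenicol/ampicillin LB agar as control and two on chloramphenicol/ampicillin/kanamycin with 0.1 mM IPTG.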
# 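Also: IS621 recombinase and bridge RNA in Escherichia coli cells.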
row,Sequence,recombinant barcode read abundance (log10)
1,CGGAATCCTTGGGTTCTAACCTGTTGCGT (site CGGAATCCTAA),0.159
2,CGGAATCCTTGGGTTCTAACCTGTTGCGT (site CGGAATCCTAC),2.33
3,CGGAATCCTTGGGTTCTAACCTGTTGCGT (site CGGAATCCTAG),0.345
4,CGGAATCCTTGGGTTCTAACCTGTTGCGT (site CGGAATCCTAT),1.19
5,CGGACGTCTTGGGTTCTAACCTGTTGCTG (site CGGACGTCTCA),1.69
6,CGGACGTCTTGGGTTCTAACCTGTTGCTG (site CGGGCGTCTAA),0.0605
7,CGGACTGCTTGGGTTCTAACCTGTTGCCT (site ACCTGACCTCC),0.0853
8,CGGACTGCTTGGGTTCTAACCTGTTGCCT (site CGGACTGCTAG),0.374
9,CGGAGCCCTTGGGTTCTAACCTGTTGCCA (site CGGAACCCTCG),0.0889
10,CGGAGCCCTTGGGTTCTAACCTGTTGCCA (site CGGAGCCCTTG),0.883
11,CGGAGTCCTTGGGTTCTAACCTGTTGCTA (site CGGAGTCCTTA),0.774
12,CGGAGTCCTTGGGTTCTAACCTGTTGCTA (site CGGCGTCCTTA),0.113
13,CGGAGTCCTTGGGTTCTAACCTGTTGCTA (site CGGGGTCCTTA),0.0775
14,CGGAGTCCTTGGGTTCTAACCTGTTGCTA (site CGGTGTCCTTA),0.102
15,CGGCAGTCTTGGGTTCTAACCTGTTGCGT (site CGACAGTCTAC),2.34
16,CGGCAGTCTTGGGTTCTAACCTGTTGCGT (site CGGCAGTCTAC),2.6
17,CGGCCCTCTTGGGTTCTAACCTGTTGCCT (site CAGCCCTCTAG),1.23
18,CGGCCCTCTTGGGTTCTAACCTGTTGCCT (site CCGCCCTCTAG),0.29
19,CGGCCCTCTTGGGTTCTAACCTGTTGCCT (site CGGCCCTCTAG),2.52
20,CGGCCCTCTTGGGTTCTAACCTGTTGCCT (site CTGCCCTCTAG),0.185
21,CGGCCGACTTGGGTTCTAACCTGTTGCGG (site CGGCCGACTCC),2.36
22,CGGCCGACTTGGGTTCTAACCTGTTGCGG (site CGGGCGCCTCC),0.184
23,CGGCTATCTTGGGTTCTAACCTGTTGCCT (site CGGCTATCTAG),0.194
24,CGGCTATCTTGGGTTCTAACCTGTTGCCT (site TGGCTATCTAG),0.0495
25,CGGCTCACTTGGGTTCTAACCTGTTGCCT (site CGGCTCACTAG),1.66
26,CGGCTCACTTGGGTTCTAACCTGTTGCCT (site CGGCTGACTAG),0.123

row,Sequence,recombinant barcode read abundance (log10)
1,CGGGAAGCTTGGGTTCTAACCTGTTGCCT (site CGGGAAGCTAG),1.61
2,CGGGAAGCTTGGGTTCTAACCTGTTGCCT (site CGGGGAGCTCG),0.287
3,CGGGACCCTTGGGTTCTAACCTGTTGCCT (site CGGGACCCTAG),1.26
4,CGGGACCCTTGGGTTCTAACCTGTTGCCT (site CGTGACCCTAA),0.634
5,CGGGCAGCTTGGGTTCTAACCTGTTGCCT (site CGAGCAGCTAG),0.0303
6,CGGGCAGCTTGGGTTCTAACCTGTTGCCT (site CGCGCAGCTAG),0.0844
7,CGGGCAGCTTGGGTTCTAACCTGTTGCCT (site CGGGCAGCTAG),0.0664
8,CGGGCAGCTTGGGTTCTAACCTGTTGCCT (site CGTGCAGCTAG),0.156
9,CGGGCCACTTGGGTTCTAACCTGTTGCGT (site CGGCCCACTCC),0.175
10,CGGGCCACTTGGGTTCTAACCTGTTGCGT (site CGGGCCACTAC),2.99
11,CGGGCGTCTTGGGTTCTAACCTGTTGCTT (site CGGACGTCTCA),0.148
12,CGGGCGTCTTGGGTTCTAACCTGTTGCTT (site CGGGCGTCTAA),1.46
13,CGGTCCTCTTGGGTTCTAACCTGTTGCGC (site CGGGCCTCTGT),0.0542
14,CGGTCCTCTTGGGTTCTAACCTGTTGCGC (site CGGTCCTCTGC),2.63
15,CGGTCTACTTGGGTTCTAACCTGTTGCCT (site CAGTCTACTAG),0.0894
16,CGGTCTACTTGGGTTCTAACCTGTTGCCT (site CCGTCTACTAG),0.264
17,CGGTCTACTTGGGTTCTAACCTGTTGCCT (site CGGTCTACTAG),0.219
18,CGGTCTACTTGGGTTCTAACCTGTTGCCT (site CTGTCTACTAG),0.0592
19,CGGTCTGCTTGGGTTCTAACCTGTTGCAT (site CGGTCTGCTAT),0.826
20,CGGTCTGCTTGGGTTCTAACCTGTTGCAT (site GCTAGGACTCA),0.217
21,CGGTGTCCTTGGGTTCTAACCTGTTGCTT (site AGGTGTCCTAA),0.0515
22,CGGTGTCCTTGGGTTCTAACCTGTTGCTT (site CGGTGTCCTAA),1.21
23,CGGTTGCCTTGGGTTCTAACCTGTTGCGT (site CGGTCGCCTAT),0.318
24,CGGTTGCCTTGGGTTCTAACCTGTTGCGT (site CGGTTGCCTAC),2.48
25,CGTAATGCTTGGGTTCTAACCTGTTGCCT (site CGAAATGCTAG),0.178
26,CGTAATGCTTGGGTTCTAACCTGTTGCCT (site CGCAATGCTAG),0.234

row,Sequence,recombinant barcode read abundance (log10)
1,CGTAATGCTTGGGTTCTAACCTGTTGCCT (site CGGAATGCTAG),0.0453
2,CGTAATGCTTGGGTTCTAACCTGTTGCCT (site CGTAATGCTAG),0.0999
3,CGTAGACCTTGGGTTCTAACCTGTTGCTA (site CGTAGACCTTA),0.216
4,CGTAGACCTTGGGTTCTAACCTGTTGCTA (site TTATCCGCTAG),0.0216
5,CGTAGGACTTGGGTTCTAACCTGTTGCCT (site AGTAGGACTAG),0.0846
6,CGTAGGACTTGGGTTCTAACCTGTTGCCT (site CGTAGGACTAG),0.209
7,CGTAGGACTTGGGTTCTAACCTGTTGCCT (site GGTAGGACTAG),0.0902
8,CGTAGGACTTGGGTTCTAACCTGTTGCCT (site TGTAGGACTAG),0.0115
9,CGTATGTCTTGGGTTCTAACCTGTTGCCT (site AGTATGTCTAG),0.0814
10,CGTATGTCTTGGGTTCTAACCTGTTGCCT (site CGTATGTCTAG),0.684
11,CGTATGTCTTGGGTTCTAACCTGTTGCCT (site GGTATGTCTAG),0.0736
12,CGTATGTCTTGGGTTCTAACCTGTTGCCT (site TGTATGTCTAG),0.189
13,CGTCAACCTTGGGTTCTAACCTGTTGCGT (site CGTAAACCTAC),0.186
14,CGTCAACCTTGGGTTCTAACCTGTTGCGT (site CGTCAACCTAC),0.205
15,CGTCAACCTTGGGTTCTAACCTGTTGCGT (site CGTGAACCTAC),0.0619
16,CGTCAACCTTGGGTTCTAACCTGTTGCGT (site CGTTAACCTAC),0.242
17,CGTCATCCTTGGGTTCTAACCTGTTGCCT (site CGTCAACCTAG),0.0954
18,CGTCATCCTTGGGTTCTAACCTGTTGCCT (site CGTCACCCTAG),0.0927
19,CGTCATCCTTGGGTTCTAACCTGTTGCCT (site CGTCAGCCTAG),0.112
20,CGTCATCCTTGGGTTCTAACCTGTTGCCT (site CGTCATCCTAG),0.0294
21,CGTCCACCTTGGGTTCTAACCTGTTGCCT (site AGTCCACCTAG),0.198
22,CGTCCACCTTGGGTTCTAACCTGTTGCCT (site CGTCCACCTAG),0.0544
23,CGTCCACCTTGGGTTCTAACCTGTTGCCT (site GGTCCACCTAG),0.1
24,CGTCCACCTTGGGTTCTAACCTGTTGCCT (site TGTCCACCTAG),0.245
25,CGTCCTGCTTGGGTTCTAACCTGTTGCCT (site AGTCCTGCTAG),0
